In patent US7491825B2, “Basic non-peptide bradykinin antagonists and pharmaceutical compositions therefrom” (Menarini Ricerche S.p.A., priority 2002, dated 2009):
Structures can show the parent of a compound that is named as a salt.

The molecules below were run against T1, human B2 receptor (Homo sapiens, UniProt P30411) (assay: binding to the human B2 receptor expressed in human fibroblasts W138). Conditions: not given.
T1 construct: human B2 receptor expressed in human fibroblasts W138; endogenous in cells; host or cells: human fibroblasts W138 (WI-38)
T1 sequence (P30411 1-391): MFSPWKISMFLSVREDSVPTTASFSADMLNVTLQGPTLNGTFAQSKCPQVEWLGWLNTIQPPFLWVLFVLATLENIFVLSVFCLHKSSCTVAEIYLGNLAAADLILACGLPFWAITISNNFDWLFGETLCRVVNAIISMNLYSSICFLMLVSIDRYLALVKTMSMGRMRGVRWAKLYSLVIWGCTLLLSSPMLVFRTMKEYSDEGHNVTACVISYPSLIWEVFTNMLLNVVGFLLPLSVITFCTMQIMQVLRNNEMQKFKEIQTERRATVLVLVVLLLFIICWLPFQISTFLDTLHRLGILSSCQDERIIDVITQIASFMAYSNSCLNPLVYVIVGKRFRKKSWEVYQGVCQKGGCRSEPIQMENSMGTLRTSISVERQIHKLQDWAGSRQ
Text: In the following the binding values are reported expressed as pKi.

Ki | Molecule
0.631 nM | Cc1cc(C)c2cccc(OCc3c(Cl)ccc(S(=O)(=O)NC4(C(=O)N5CCN(C(=O)[C@H](N)CCCCNC(=N)N)CC5)CCCC4)c3Cl)c2n1 [Example 64, N-[1-[4-(2-(R)-Amino-6-guanidino-hexanoyl)-piperazine-1-carbonyl]-cyclopentyl]-2,4-dichloro-3-(2,4-dimethyl-quinolin-8-yloxymethyl)-benzenesulfonamide tris trifluoroacetate]
0.501 nM | Cc1cc(C)c2cccc(OCc3c(Cl)ccc(S(=O)(=O)NC4(C(=O)N5CCN(C(=N)NCCCCCCN)CC5)CCCC4)c3Cl)c2n1 [Example 95, N-(6-Amino-hexyl)-4-{1-[2,4-dichloro-3-(2,4-dimethyl-quinolin-8-yloxymethyl)-benzenesulfonylamino]-cyclopentanecarbonyl}-piperazine-1-carboxamidine bis trifluoroacetate]
0.398 nM | Cc1ccc2cccc(OCc3c(Cl)ccc(S(=O)(=O)NC(C)(C)C(=O)N4CCN(C(=N)NCCCN)CC4)c3Cl)c2n1 [Example 31, N-(3-Amino-propyl)-4-{2-[2,4-dichloro-3-(2-methyl-quinolin-8-yloxymethyl)-benzenesulfonylamino]-2-methyl-propionyl}-piperazine-1-carboxamidine tris trifluoroacetate]

Same assay, conditions: human B2 receptor expressed in human fibroblasts W138

Molecule | pKi
Cc1cc(C)c2cccc(OCc3c(Cl)ccc(S(=O)(=O)NC4(C(=O)N5CCN(C(=O)C[C@@H](N)CCC[N+](C)(C)C)CC5)CCCC4)c3Cl)c2n1.Cc1cc(C)c2cccc(OCc3c(Cl)ccc(S(=O)(=O)NC4(C(=O)N5CCN(C(=O)C[C@@H](N)CCC[N+](C)(C)C)CC5)CCCC4)c3Cl)c2n1.O=C([O-])C(F)(F)F.O=C([O-])C(F)(F)F [Example 107, [4-(S)-Amino-6-(4-{1-[2,4-dichloro-3-(2,4-dimethyl-quinolin-8-yloxymethyl)-benzenesulfonylamino]-cyclopentanecarbonyl}-piperazin-1-yl)-6-oxohexyl]-trimethylammonium bis trifluoroacetate] | 9.7
Cc1cc(C)c2cccc(OCc3c(Cl)ccc(S(=O)(=O)NC4(C(=O)N5CCN(C(=O)[C@@H](N)CCCC[N+](C)(C)C)CC5)CCCC4)c3Cl)c2n1 [Example 79, N-{1-[4-(2-(S)-Amino-6-trimethylammonium-hexanoyl)-piperazine-1-carbonyl]-cyclopentyl}-2,4-dichloro-3-(2,4-dimethyl-quinolin-8-yloxymethyl)-benzenesulfonamide tris trifluoroacetate] | 9.2
N-[1-[4-(2-(S)-Dimethylamino-6-dimethylamino-hexanoyl)-piperazin-1-yl]-cyclopentyl]-2,4-dichloro-3-(2,4-dimethyl-quinolin-8-yloxymethyl)-benzenesulfonamide tris trifluoroacetate [Example 85] | 9.3
Cc1cc(C)c2cccc(OCc3c(Cl)ccc(S(=O)(=O)NC4(C(=O)N5CCN(C(=O)CCC[N+](C)(C)C)CC5)CCCC4)c3Cl)c2n1 [Example 83, N-{1-[4-(4-Trimethylammonium-butanoyl)-piperazine-1-carbonyl]-cyclopentyl}-2,4-dichloro-3-(2,4-dimethyl-quinolin-8-yloxymethyl)-benzenesulfonamide bis trifluoroacetate] | 9.4
2,4-Dichloro-3-(2-methyl-quinolin-8-yloxymethyl)-benzenesulfinic acid (2-{4-[2-R-amino-5-(N′,N″-diethyl-guanidino)-pentanoyl]-piperazin-1-yl}-1,1-dimethyl-2-oxo-ethyl)-amide [Example 42] | 9.4
Cc1cc(C)c2cccc(OCc3c(Cl)ccc(S(=O)(=O)N[C@H](C)C(C)C(=O)N4CCN(C(=O)C[C@H](CCCNC(=N)N)NC(=N)N)CC4)c3Cl)c2n1.O=C(O)C(F)(F)F.O=C(O)C(F)(F)F.O=C(O)C(F)(F)F (stereo partly shown) [Example 73] | 9.2
Cc1cc(C)c2cccc(OCc3c(Cl)ccc(S(=O)(=O)NC4(C(=O)N5CCN(C(=O)C[C@H](CCCNC(=NC6CCCCC6)NC6CCCCC6)NC(=NC6CCCCC6)NC6CCCCC6)CC5)CCCC4)c3Cl)c2n1.O=C(O)C(F)(F)F.O=C(O)C(F)(F)F.O=C(O)C(F)(F)F [Example 80, N-(1-{4-[3-(S),6-Bis-(N′,N″-dicyclohexyl-guanidino)-hexaoyl]-piperazine-1-carbonyl}-cyclopentyl)-2,4-dichloro-3-(2,4-dimethyl-quinolin-8-yloxymethyl)-benzensulfonamide tris trifluoroacetate] | 9.2
2,4-Dichloro-3-(2-methyl-quinolin-8-yloxymethyl)-benzenesulfinic acid {2-[4-(2-guanidino-ethyl)-piperazin-1-yl]-1,1-dimethyl-2-oxo-ethyl}-amide [Example 40] | 9.7

Same assay, conditions: human B2 receptor expressed in human fibroblasts W138; read-out: pKi (converted)

Molecule | Ki
CC[C@@](C)(NS(=O)(=O)c1ccc(Cl)c(COc2cccc3c(C)cc(C)nc23)c1Cl)C(=O)N1CCN(C(=O)C[C@@H](N)CCCN)CC1 [Example 72, (R)—N-[4-(3-(S)-Amino-6-amino-hexanoyl)-piperazine-1-carbonyl]-1-methyl-propyl]-2,4-dichloro-3-(2,4-dimethyl-quinolin-8-yloxymethyl)-benzenesulfonamide tris trifluoroacetate] | 0.398 nM
Cc1ccc2cccc(OCc3c(Cl)ccc(S(=O)(=O)NC(C)(C)C(=O)N4CCN(C(=O)C[C@@H](N)CCCCN(C)C)CC4)c3Cl)c2n1 [Example 30, N-{2-[4-(3-(S)-Amino-7-dimethylamino-heptanoyl)-piperazin-1-yl]-1,1-dimethyl-2-oxo-ethyl}-2,4-dichloro-3-(2-methyl-8-quinolinoxymethyl)-benzenesulfonamide tris trifluoroacetate] | 0.794 nM
Cc1cc(C)c2cccc(OCc3c(Cl)ccc(S(=O)(=O)NC4(C(=O)N5CCN(C(=O)CCCCCNC(=N)N)CC5)CCCC4)c3Cl)c2n1 [Example 67, N-[1-[4-(6-Guanidino-hexanoyl)-piperazine-1-carbonyl]-cyclopentyl]-2,4-dichloro-3-(2,4-dimethyl-quinolin-8-yloxymethyl)-benzenesulfonamide bis trifluoroacetate] | 0.794 nM
CC[C@@](C)(NS(=O)(=O)c1ccc(Cl)c(COc2cccc3c(C)cc(C)nc23)c1Cl)C(=O)N1CCN(C(=O)C[C@@H](N)CCCN(C)C)CC1 [Example 74, (R)—N-[4-(3-(S)-Amino-6-dimethylamino-hexanoyl)-piperazine-1-carbonyl]-1-methyl-propyl]-2,4-dichloro-3-(2,4-dimethyl-quinolin-8-yloxymethyl)-benzenesulfonamide tris trifluoroacetate] | 0.794 nM
CC[C@@](C)(NS(=O)(=O)c1ccc(Cl)c(COc2cccc3c(C)cc(C)nc23)c1Cl)C(=O)N1CCN(C(=O)[C@@H](N)CCCCN(C)C)CC1 [Example 61, (R)—N-[1-[4-(2-(S)-Amino-6-dimethylamino-hexanoyl)-piperazine-1-carbonyl]-1-methyl-propyl]-2,4-dichloro-3-(2,4-dimethyl-quinolin-8-yloxymethyl)-benzenesulfonamide tris trifluoroacetate] | 0.501 nM

The next lines start with the values.

Ki | Molecule
0.398 nM | CNCCCCCNCC1CCN(C(=O)C2(NS(=O)(=O)c3ccc(Cl)c(COc4cccc5c(C)cc(C)nc45)c3Cl)CCCC2)CC1 [Example 106, 2,4-Dichloro-3-(2,4-dimethyl-quinolin-8-yloxymethyl)-N-(1-{4-[(5-methylamino-pentylamino)-methyl]-piperidine-1-carbonyl}-cyclopentyl)-benzenesulfonamide tris trifluoroacetate]
0.631 nM | Cc1cc(C)c2cccc(OCc3c(Cl)ccc(S(=O)(=O)NC4(C(=O)N5CCN(C(=O)C[N+](C)(C)C)CC5)CCCC4)c3Cl)c2n1 [Example 82, N-{1-[4-(2-Trimethylammonium-acetyl)-piperazine-1-carbonyl]-cyclopentyl}-2,4-dichloro-3-(2,4-dimethyl-quinolin-8-yloxymethyl)-benzenesulfonamide bis trifluoroacetate]
0.794 nM | Cc1cc(C)c2cccc(OCc3c(Cl)ccc(S(=O)(=O)NC4(C(=O)N5CCN(C(=N)NCCNCCCN)CC5)CCCC4)c3Cl)c2n1 [Example 96, N-[2-(3-Amino-propylamino)-ethyl]-4-{1-[2,4-dichloro-3-(2,4-dimethyl-quinolin-8-yloxymethyl)-benzenesulfonylamino]-cyclopentanecarbonyl}-piperazine-1-carboxamidine bis trifluoroacetate]
0.631 nM | Cc1cc(C)c2cccc(OCc3c(Cl)ccc(S(=O)(=O)NC4(C(=O)N5CCN(C[C@H](N)CCCCN)CC5)CCCC4)c3Cl)c2n1 [Example 98, 2,4-Dichloro-N-{1-[4-(2(R),6-diamino-hexyl)-piperazine-1-carbonyl]-cyclopentyl}-3-(2,4-dimethyl-quinolin-8-yloxymethyl)-benzenesulfonamide tetra trifluoroacetate]
0.631 nM | Cc1cc(C)c2cccc(OCc3c(Cl)ccc(S(=O)(=O)NC4(C(=O)N5CCN(C(=O)C[C@@H](O)C[N+](C)(C)C)CC5)CCCC4)c3Cl)c2n1 [Example 84, N-{1-[4-(3(R)-Hydroxy-4-trimethylammonium-butanoyl)-piperazine-1-carbonyl]-cyclopentyl}-2,4-dichloro-3-(2,4-dimethyl-quinolin-8-yloxymethyl)-benzenesulfonamide bis trifluoroacetate]
0.398 nM | Cc1cc(C)c2cccc(OCc3c(Cl)ccc(S(=O)(=O)NC4(C(=O)N5CCN(CCN6CCNCC6)CC5)CCCC4)c3Cl)c2n1 [Example 100, 2,4-Dichloro-3-(2,4-dimethyl-quinolin-8-yloxymethyl)-N-{1-[4-(2-piperazin-1-yl-ethyl)-piperazine-1-carbonyl]-cyclopentyl}-benzenesulfonamide tetra trifluoroacetate]
